B1: IL-4: cytokine interleukin 4 (protein, UniProt P05112 25-153, looked up)
Interleukin-4: HKCDITLQEIIKTLNSLTEQKTLCTELTVTDIFAASKNTTEKETFCRAATVLRQFYSHHEKDTRCLGATAQQFHRHKQLIRFLKRLDRNLWGLAGLNSCPVKEANQSTLENFLERLKTIMREKYSKCSS
B2: IFNγ: cytokine interferon γ (protein, UniProt P01579 24-161, looked up)
Interferon gamma: QDPYVKEAENLKKYFNAGHSDVADNGTLFLGILKNWKEESDRKIMQSQIVSFYFKLFKNFKDDQSIQKSVETIKEDMNVKFFNSNKKKRDDFEKLTNYSVTDLNVQRKAIHELIQVMAELSPAAKTGKRKRSQMLFRG

Experiments:
mouse intersectin 2 gene = assay: Intersectin 2 gene expression in ear tissue of DNFB-coated mouse allergic reaction model (TaqMan, ABI 7700); format: in vivo; details: mouse ear tissue mRNA, day 6, corrected with 18S gene, value of CONT. taken as 1; four mice each; prednisolone oral day 0 to day 6
Protocol: Using a 2,4-dinitrofluorobenzene (DNFB) coated mouse as a model for an allergic reaction, changes in the expression level of the intersectin 2 gene in the mouse were observed. DNFB is a substance that is used as a hapten to cause allergic dermatitis reaction in a laboratory animal such as a mouse.
Day 0: The abdominal region was shaved by an electric clipper and 25 μL of the sensitizing solution was applied to the abdominal region.
Day 1: In a similar manner to the previous day, 25 μL of the sensitizing solution was applied to the abdominal region.
Day 5: 5 μL/ear of challenge solution was applied to both ears. […]
The expression level of the intersectin 2 gene was quantified by the TaqMan method (as mentioned above) using ABI 7700 and using mRNA sample extracted from the mouse ear tissue. […]
PCR was carried out using 25 μL of 2× Master Mix without UNG, 1.25 μL of 40×MultiScribe and RNase Inhibitor Mix, 0.25 μL of 10 μM primer, and 0.625 μL of 4 μM TaqMan Probe derived from One-step RT-PCR Master Mix Reagents (PE Biosystems), and RNA (2 ng)+DEPC resulting in total volume of 50 μL. […] To correct the differences of cDNA concentration among the samples, a similar quantitative analysis was performed on the 18S gene, and the value for the gene of interest was divided by the value for 18S, and indicated as taking the value of CONT. as 1. […]

[1] = test system: "1835-17" (intersectin 2 gene); assay: Change in gene expression in human peripheral blood eosinophils due to stimulation by cytokines (TaqMan, ABI 7700); format: cell-based; details: eosinophils of a healthy subject, cytokine 0.1, 1 and 10 ng/ml, 3 hours culture, GAPDH corrected, FIG. 4
Protocol: The change in gene expression due to cytokine stimulation in eosinophils isolated from 100 ml of peripheral blood from a healthy subject was studied. Isolation of eosinophils was carried out as described above. Eosinophils were plated onto a 24-well plate (1×10^6 cells/mL). The plate was pre-coated with 1% BSA (immobilizing blocking buffer) at room temperature for 2 hours in order to prevent activation due to adhesion of eosinophils. As cytokines, 0.1, 1, and 10 ng/ml each of interleukin 5 (IL-5), interleukin 4 (IL-4), interferon γ (IFNγ), granulocyte macrophage colony stimulating factor (GM-CSF), and eotaxin were added to each well, and this was cultured for 3 hours in DMEM supplemented with 10% FCS. All of these cytokines are those considered to be related to activation of eosinophils and onset of allergies.
RNAs were prepared in the same manner as in Example 1 for each of the treated eosinophils, and were subjected to gene expression analysis. The primers, probes, and such used were the same as described above. The result at 3 hours after starting the culture is shown in FIG. 4 (value was corrected with GAPDH for the number of copies per 1 ng of RNA).

Row | Molecule | relative expression level of intersectin 2 gene (Average) (mouse intersectin 2 gene) | expression of "1835-17" (intersectin 2 gene) [1]
1 | O=[N+]([O-])c1ccc(F)c([N+](=O)[O-])c1 [DNFB, 2,4-dinitrofluorobenzene] | 2.04 | –
2 | C[C@]12C=CC(=O)C=C1CC[C@@H]1[C@@H]2[C@@H](O)C[C@@]2(C)[C@H]1CC[C@]2(O)C(=O)CO [S, prednisolone] | 1.04 | –
3 | IL-5: cytokine interleukin 5 | – | increases
4 | B1 | – | induced
5 | B2 | – | induced

From patent US20040053282A1, “Method of examining allergic disease” (priority 2000, published 2004)
